Laboratory results from patent publication US4241083A, “Germicidal composition for agriculture and horticulture” (priority 1978, dated 1980).

How the values were obtained:
Valsa ceratosperma [1] = assay: Growth of germs on potato dextrose-agar medium containing the compound (Ex. 1); format: cell-based; set-up: key: +++: extremely much growth; ++: much growth; +: a little growth; -: no growth; conditions: two weeks, 25° C.
Experimental: (§1) Ethyl 2-(2-hydroxyethylamino)-3-benzoylpropionate hydrochloride was added to potato dextrose-agar culture medium in the concentration indicated in Table 1 and the suspensions of various kinds of germs were dropped on the culture medium. After incubation of the germs for two weeks in thermostat (25° C.), the growing conditions were observed.
(§2) In Table 1, +++, ++, + and - represent "extremely much growth", "much growth", "a little growth" and "no growth" respectively.

Verticillium alboatrum = assay: Growth of germs on potato dextrose-agar medium containing the compound (Ex. 2); format: cell-based; set-up: key: +++: extremely much growth; ++: much growth; +: a little growth; -: no growth; conditions: two weeks, 25° C.
Experimental: as §1, §2

Cladosporium fulvum = assay: Growth of germs on potato dextrose-agar medium containing the compound (Ex. 5); format: cell-based; set-up: key: +++: extremely much growth; ++: much growth; +: a little growth; -: no growth; conditions: two weeks, 25° C.
Experimental: as §1, §2

Alternaria solani = assay: Growth of germs on potato dextrose-agar medium containing the compound (Ex. 6); format: cell-based; set-up: key: +++: extremely much growth; ++: much growth; +: a little growth; -: no growth; conditions: two weeks, 25° C.
Experimental: as §1, §2

[2] = tested on: Colletotrichum lagenarium; assay: Growth of germs on potato dextrose-agar medium containing the compound (Ex. 9, germ of anthracnose on cucumbers); format: cell-based; set-up: key: +++: extremely much growth; ++: much growth; +: a little growth; -: no growth; conditions: two weeks, 25° C.
Experimental: as §1, §2
^1 Germ of anthracnose on cucumbers

[3] = tested on: Colletotrichum lagenarium; assay: Growth of germs on potato dextrose-agar medium containing the compound (Ex. 10, germ of anthracnose on watermelons); format: cell-based; set-up: key: +++: extremely much growth; ++: much growth; +: a little growth; -: no growth; conditions: two weeks, 25° C.
Experimental: as §1, §2
^2 Germ of anthracnose on watermelons

Mycosphaerella melonis = assay: Growth of germs on potato dextrose-agar medium containing the compound (Ex. 13); format: cell-based; set-up: key: +++: extremely much growth; ++: much growth; +: a little growth; -: no growth; conditions: two weeks, 25° C.
Experimental: as §1, §2

Valsa ceratosperma [4] = assay: Length of disease spots on cut apple branches immersed in germicide before inoculation (Ex. 16); format: in vivo; conditions: 25° C.
Experimental: (§3) Branches of Delicious apple (branch diameter: about 1 cm. thick) grown for 1-2 years were cut to 10 cm. length. The cut branches were dried in a low temperature chamber (3° C.) until the water content of the cut branches became 50%. The dried cut branches were immersed in an aqueous solution of ethyl 2-(2-hydroxyethylamino)-3-benzoylpropionate hydrochloride (500 ppm, 1000 ppm and 2500 ppm) for one minute and then dried.
(§4) Each cut branch was end bored by a white heated 8 mm diameter cork borer. Valsa ceratosperma, previously cultured for four days on a potato dextrose-agar culture medium, was introduced into the branch by inoculating the branch with the Valsa ceratosperma containing culture by means of the sterilized cork borer. The branches prepared in this way were placed on wet filter paper spread in a polyethylene tray. The tray was inserted into a polyethylene bag which was sealed and then the bag was put into a thermostat (25° C.) for various controlled times.
(§5) After removal from the thermostat, the length of disease spots on each branch was measured.
A similar experiment for comparison was carried out using Benomyl, i.e. methyl-1-(buthylcarbamoyl)-2-benzimidazole carbamate as the germicide. The results of the comparative experiment and also a control experiment, in which the dried cut branches were not immersed in germicide (blank), are also shown in Table 2.

Valsa ceratosperma [5] = assay: Length of disease spots on apple branches treated on the third day after inoculation (Ex. 17); format: in vivo; conditions: 1000 ppm on third day after inoculation
Experimental: as §3, §4, §5
The same experiment as in Example 16 was carried out except that the apple branches were treated with the germicides (1000 ppm) on the third day after the branches were inoculated with the germ. The lengths of disease spots on the third day […], fifth day and seventh day were 5.1 mm, 5.2 mm and 5.2 mm respectively.

Cladosporium cucumerium = assay: Prevention effect for cucumber scab (Ex. 19); format: in vivo; conditions: for Germicidal damage to seedlings: cucumber seedlings; for Percentage of leaf area with disease spots / Percentage of leaves attacked with the disease / Prevention value per leaf (Perfect prevention = 100): eighth day after spraying
Text: The prevention effect for cucumber scab was examined in the following manner.
An aqueous solution of ethyl 2-(2-hydroxyethylamino)-3-benzoylpropionate hydrochloride (2500 ppm or 5000 ppm) was sprayed on cucumber seedlings (bifoliate age) of Tokiwa Hikari No. 3 (p type) variety which were planted in sections in two rows of three.
After air-drying the seedlings, a spore suspention of Cladosporium cucumerium was inoculated on the test seedlings by means of a glass sprayer. The inoculated seedlings were kept at 18°-20° C. for four days in an inoculation box and then allowed to stand in a glass chamber.
The leaf area on which scab spots appeared was measured on the eighth day after spraying the aqueous germicide solution. The spotted area is expressed as a prevention value.

Sphaerotheca fuliginea = assay: Prevention effect for powdery mildew on cucumbers (Ex. 20, 21); format: in vivo; conditions: Table 5; for Germicidal damage to seedlings: cucumber seedlings; for Percentage of leaf area with disease spots / Percentage of leaves attacked with the disease / Prevention value per leaf (Perfect prevention = 100): third and ninth days, read fifteenth day after inoculation
Experimental: The prevention effect for powdery mildew on cucumbers caused by Sphaerotheca fuliginea was examined in the following manner.
Cucumber seedlings (bifoliate age) of Tokiwa Hikari No. 3 (p type) variety planted in sections of two rows of three were inoculated with the above germ by brushing on spores from a cucumber leaf attacked with powdery mildew. […]
The leaf area on which powdery mildew spots appeared was measured on the fifteenth day after the seedlings were inoculated with the germ. The spotted area is expresses as a prevention value.
The same experiment as Example 20 was carried out except that isopropyl 2-(2-hydroxyethylamino)-3-benzoyl-propionate hydrochloride was used instead of ethyl 2-(2-hydroxyethylamino)-3-benzoylpropionate hydrochloride.

CCOC(=O)C(CC(=O)c1ccccc1)NCCO.Cl (stereo not drawn) [Ethyl 2-(2-hydroxyethylamino)-3-benzoylpropionate hydrochloride]
growing conditions (growth of germ) (Valsa ceratosperma [1]; 10 ppm): - | growing conditions (growth of germ) (Valsa ceratosperma [1]; 20 ppm): - | growing conditions (growth of germ) (Valsa ceratosperma [1]; 50 ppm): - | growing conditions (growth of germ) (Valsa ceratosperma [1]; 100 ppm): - | growing conditions (growth of germ) (Valsa ceratosperma [1]; 200 ppm): - | growing conditions (growth of germ) (Verticillium alboatrum; 10 ppm): +++ | growing conditions (growth of germ) (Verticillium alboatrum; 20 ppm): ++ | growing conditions (growth of germ) (Verticillium alboatrum; 50 ppm): - | growing conditions (growth of germ) (Verticillium alboatrum; 100 ppm): - | growing conditions (growth of germ) (Verticillium alboatrum; 200 ppm): - | growing conditions (growth of germ) (Cladosporium fulvum; 10 ppm): ++ | growing conditions (growth of germ) (Cladosporium fulvum; 20 ppm): - | growing conditions (growth of germ) (Cladosporium fulvum; 50 ppm): - | growing conditions (growth of germ) (Cladosporium fulvum; 100 ppm): - | growing conditions (growth of germ) (Cladosporium fulvum; 200 ppm): - | growing conditions (growth of germ) (Alternaria solani; 10 ppm): ++ | growing conditions (growth of germ) (Alternaria solani; 20 ppm): - | growing conditions (growth of germ) (Alternaria solani; 50 ppm): - | growing conditions (growth of germ) (Alternaria solani; 100 ppm): - | growing conditions (growth of germ) (Alternaria solani; 200 ppm): - | growing conditions (growth of germ) ([2]; 10 ppm): +++ | growing conditions (growth of germ) ([2]; 20 ppm): - | growing conditions (growth of germ) ([2]; 50 ppm): - | growing conditions (growth of germ) ([2]; 100 ppm): - | growing conditions (growth of germ) ([2]; 200 ppm): - | growing conditions (growth of germ) ([3]; 10 ppm): ++ | growing conditions (growth of germ) ([3]; 20 ppm): ++ | growing conditions (growth of germ) ([3]; 50 ppm): - | growing conditions (growth of germ) ([3]; 100 ppm): - | growing conditions (growth of germ) ([3]; 200 ppm): - | growing conditions (growth of germ) (Mycosphaerella melonis; 10 ppm): +++ | growing conditions (growth of germ) (Mycosphaerella melonis; 20 ppm): - | growing conditions (growth of germ) (Mycosphaerella melonis; 50 ppm): - | growing conditions (growth of germ) (Mycosphaerella melonis; 100 ppm): - | growing conditions (growth of germ) (Mycosphaerella melonis; 200 ppm): - | Length of disease spot (Valsa ceratosperma [4]; 500 ppm, after 3 days): 0 mm | Length of disease spot (Valsa ceratosperma [4]; 500 ppm, after 5 days): 0 mm | Length of disease spot (Valsa ceratosperma [4]; 500 ppm, after 7 days): 0.2 mm | Length of disease spot (Valsa ceratosperma [4]; 1000 ppm, after 3 days): 0 mm | Length of disease spot (Valsa ceratosperma [4]; 1000 ppm, after 5 days): 0 mm | Length of disease spot (Valsa ceratosperma [4]; 1000 ppm, after 7 days): 0 mm | Length of disease spot (Valsa ceratosperma [4]; 2500 ppm, after 3 days): 0 mm | Length of disease spot (Valsa ceratosperma [4]; 2500 ppm, after 5 days): 0 mm | Length of disease spot (Valsa ceratosperma [4]; 2500 ppm, after 7 days): 0 mm | lengths of disease spots (Valsa ceratosperma [5]; fifth day): 5.2 mm | lengths of disease spots (Valsa ceratosperma [5]; seventh day): 5.2 mm | lengths of disease spots (Valsa ceratosperma [5]; third day): 5.1 mm | Germicidal damage to seedlings (Cladosporium cucumerium; 2500 ppm): none | Percentage of leaf area with disease spots (Cladosporium cucumerium; 2500 ppm): 25.0% | Percentage of leaves attacked with the disease (Cladosporium cucumerium; 2500 ppm): 100% | Prevention value per leaf (Perfect prevention = 100) (Cladosporium cucumerium; 2500 ppm): 63.4 | Germicidal damage to seedlings (Cladosporium cucumerium; 5000 ppm): none | Percentage of leaf area with disease spots (Cladosporium cucumerium; 5000 ppm): 20.0% | Percentage of leaves attacked with the disease (Cladosporium cucumerium; 5000 ppm): 100% | Prevention value per leaf (Perfect prevention = 100) (Cladosporium cucumerium; 5000 ppm): 70.7 | Germicidal damage to seedlings (Sphaerotheca fuliginea; 2500 ppm): none | Percentage of leaf area with disease spots (Sphaerotheca fuliginea; 2500 ppm): 0% | Percentage of leaves attacked with the disease (Sphaerotheca fuliginea; 2500 ppm): 0% | Prevention value per leaf (Perfect prevention = 100) (Sphaerotheca fuliginea; 2500 ppm): 100 | Germicidal damage to seedlings (Sphaerotheca fuliginea; 5000 ppm): none | Percentage of leaf area with disease spots (Sphaerotheca fuliginea; 5000 ppm): 0% | Percentage of leaves attacked with the disease (Sphaerotheca fuliginea; 5000 ppm): 0% | Prevention value per leaf (Perfect prevention = 100) (Sphaerotheca fuliginea; 5000 ppm): 100
